Patent US11325921B2, “Optically active crosslinked cyclic secondary amine derivative” (Sumitomo Dainippon Pharma Co., Ltd., priority 2018, dated 2022)

Key:
MOLM-13 cells = assay: Test 2: inhibition of cell proliferation, MOLM-13; type: cell-based; details: Homo sapiens, 168 h, cultured 7 days, PrestoBlue
Experimental: (§1) RS4; 11 cells were obtained from American Type Culture Collection (ATCC). The cells were cultured at 37° C. in the presence of 5% CO2 in RPMI 1640 medium containing 10% fetal bovine serum and 1% penicillin/streptomycin. MOLM-13 cells were separately obtained from DSMZ. The cells were cultured at 37° C. in the presence of 5% CO2 in RPMI 1640 medium containing 20% fetal bovine serum and 1% penicillin/streptomycin.
(§2) The cells were plated to a 96-well plate in 2000 cells/well, each test compound was added thereto to adjust the final concentration of DMSO to 0.1% of DMSO, and the cells were cultured for 7 days. After the cultivation, the cell viability was calculated with PrestoBlue™ Cell Viability Reagent (Invitrogen, A13261). The IC50 value was calculated from a survival curve, that corresponds to the concentration of the test compound at which the cell proliferation inhibition rate is 50%.

[1] = system: HOXA9 mRNA in MV4; 11 cells; assay: Test 3: inhibition of mRNA transcription, HOXA9; type: cell-based; details: Homo sapiens, 20 to 24 hours, fitted with GAPDH, read-out: mRNA at 1 μM (% control) HOXA9
Experimental: (§3) MV4; 11 cells were obtained from American Type Culture Collection (ATCC). The cells were cultured at 37° C. in the presence of 5% CO2 in RPMI 1640 medium containing 10% fetal bovine serum and 1% penicillin/streptomycin. To the MV4; 11 cells was added each test compound to adjust the final concentration to 1 μmol/L, and the cells were cultured at 37° C. in the presence of 5% CO2 for 20 to 24 hours. After the incubation, the total RNA was extracted from the cells with RNeasy™ Mini Kit (QIAGEN, 74106), and cDNA was synthesized with Superscript™ VILO™ cDNA Synthesis Kit (Invitrogen, #11754250). By using TaqMan™ Gene Expression Master Mix (Applied Biosystems, 4369016) and TaqMan™ probe (Applied Biosystems), the expression level of mRNA was quantified from the obtained cDNA with 7900HT (Applied biosystems). The mRNA expression level of each obtained gene was fitted with the expression level of mRNA of GAPDH.

RS4; 11 cells = assay: Test 2: inhibition of cell proliferation, RS4; 11; type: cell-based; details: for IC50: Homo sapiens, 168 h, 11 cells, cultured 7 days, PrestoBlue; for cell proliferation inhibition activity (in words, good) / cell proliferation inhibitory activity (in words, potent): 11 and MOLM-13 cells, summary of the table; for cell proliferation inhibitory activity (in words, potent): 'especially'
Experimental: as §1, §2

[2] = target: Menin-MLL binding (His-Menin1-615 / MLL1-172-FLAG) (Homo sapiens (Human), UniProt O00255); assay: Test 1: inhibition of the Menin-MLL binding (HTRF); details: for Menin-MLL binding inhibition activity (in words): summary of the table
Experimental: Menin1-615 wherein 6× His tag and HA tag are inserted in the N-terminus, and myc tag is inserted in the C-terminus (hereinafter, referred to as His-Menin1-615), was diluted with an assay buffer (25 mmol/L HEPES, 150 mmol/L NaCl, 1 mmol/L dithiothreitol, 0.5% (w/v) Tween 80, 0.3% (w/v) BSA, 0.3% (w/v) skim milk) to adjust the final concentration Lo 30 nmol/L. The test compounds were also diluted with the assay buffer to adjust each concentration of the test compounds to 0.005 to 5 μmol/L. The prepared His-Menin1-615 and test compounds were added to a light-shielding 384-well low-volume plate (Corning, #4514) in 2 μL/well and 6 μL/well, respectively, and the plate was covered with a lid for light-shielding (Corning, r-3935), and incubated at room temperature for 3 hours. After the incubation, MLL1-172 wherein FLAG tag is inserted in the C-terminus (MLL1-172-FLAG), was separately diluted with the assay buffer to adjust the final concentration to 50 nmol/L. The prepared MLL1-172-FLAG was added to the above plate in 2 μL/well, and the plate was covered with a lid for light-shielding and incubated at room temperature for an hour.
Then, anti-6HIS-d2 antibody (cisbio, 61HISDLA) and anti-FLAGM2-K antibody (cisbio, 61FG2KLA) were diluted with an antibody dilution buffer (50 mmol/L Tris, 150 mmol/L NaCl, 800 mmol/L KF, pH 7.4) to adjust the final concentration to 1.4 μg/mL to prepare an antibody mixture. The prepared antibody mixture was added to the above plate in 10 μL/well, and the plate was covered with a lid and incubated at 4° C. for 17 to 24 hours. After the incubation, the signal was detected with RUBYstar (BMG LABTECH). The binding inhibition rate (%) at each concentration of the test compounds was calculated from the following formula, and the IC50 value was obtained, that corresponds to the concentration of the test compound at which the binding inhibition rate is 50%.

[3] = system: MEIS1 mRNA in MV4; 11 cells; assay: Test 3: inhibition of mRNA transcription, MEIS1; type: cell-based; details: for mrna remaining at 1 µM: Homo sapiens, MV4, 20 to 24 hours, fitted with GAPDH, read-out: mRNA at 1 μM (% control) MEIS1; for mRNA transcription inhibition activity (in words): MEIS1 and HOXA9, MV4, 1 μM, summary of the table
Experimental: as §3

Sequence of Menin-MLL binding (His-Menin1-615 / MLL1-172-FLAG) (O00255 other isoform, or with tags, fused parts or gaps): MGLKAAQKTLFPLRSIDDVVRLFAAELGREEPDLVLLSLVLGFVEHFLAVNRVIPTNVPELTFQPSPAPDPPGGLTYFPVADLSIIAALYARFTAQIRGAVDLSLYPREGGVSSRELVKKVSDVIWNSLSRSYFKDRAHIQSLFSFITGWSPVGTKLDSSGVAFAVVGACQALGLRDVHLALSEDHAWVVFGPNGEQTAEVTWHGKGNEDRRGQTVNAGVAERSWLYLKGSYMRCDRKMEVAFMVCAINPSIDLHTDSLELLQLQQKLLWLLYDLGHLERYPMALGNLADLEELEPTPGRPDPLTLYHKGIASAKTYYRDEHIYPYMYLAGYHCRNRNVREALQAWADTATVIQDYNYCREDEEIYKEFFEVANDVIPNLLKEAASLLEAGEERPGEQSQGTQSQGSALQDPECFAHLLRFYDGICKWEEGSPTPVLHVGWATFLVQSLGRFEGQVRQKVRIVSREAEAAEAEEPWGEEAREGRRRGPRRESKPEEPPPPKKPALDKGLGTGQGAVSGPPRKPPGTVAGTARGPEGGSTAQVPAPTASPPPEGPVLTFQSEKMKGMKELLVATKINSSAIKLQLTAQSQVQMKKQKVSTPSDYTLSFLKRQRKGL

Row | Structure (SMILES) | IC50 (MOLM-13 cells) | IC50 (RS4; 11 cells) | IC50 [2] | Menin-MLL binding inhibition activity (in words) [2] | mrna remaining at 1 µM [1] | mrna remaining at 1 µM [3] | cell proliferation inhibition activity (in words, good) (RS4; 11 cells) | mRNA transcription inhibition activity (in words) [3] | cell proliferation inhibitory activity (in words, potent) (RS4; 11 cells)
1 | O=C([C@H]1N[C@H]2CC[C@@H]1C[C@@H]2O)N1CC2(C1)CN(c1c(C(F)(F)F)cnc3sc(CC(F)(F)F)cc13)C2 [Example 6, [(1S,3S,4R,6S)-6-hydroxy-2-azabicyclo[2.2.2]octan-3-yl]{6-[2-(2,2,2-trifluoroethyl)-5-(trifluoromethyl)thieno[2,3-b]pyridin-4-yl]-2,6-diazaspiro[3.3]heptan-2-yl}methanone] | 830 nM | 580 nM | 27.3 nM |  | 54.3% | 51.3% |  |  | 
2 | O=C([C@H]1N[C@H]2CC[C@@H]1C(F)(F)C2)N1CC2(C1)CN(c1c(C(F)(F)F)cnc3sc(CC(F)(F)F)cc13)C2 [Example 4, [(1S,3S,4S)-5,5-difluoro-2-azabicyclo[2.2.2]octan-3-yl]{6-[2-(2,2,2-trifluoroethyl)-5-(trifluoromethyl)thieno[2,3-b]pyridin-4-yl]-2,6-diazaspiro[3.3]heptan-2-yl}methanone] | 1700 nM | 780 nM | 140 nM |  | 60% | 65.4% |  |  | 
3 | O=C([C@H]1N[C@H]2CC[C@@H]1C[C@H]2F)N1CC2(C1)CN(c1c(C(F)(F)F)cnc3sc(CC(F)(F)F)cc13)C2 [Example 10, [(1S,3S,4R,6R)-6-fluoro-2-azabicyclo[2.2.2]octan-3-yl]{6-[2-(2,2,2-trifluoroethyl)-5-(trifluoromethyl)thieno[2,3-b]pyridin-4-yl]-2,6-diazaspiro[3.3]heptan-2-yl}methanone] | 2100 nM | 810 nM | 343 nM |  | 69.5% | 68.8% |  |  | 
4 | O=C([C@H]1N[C@H]2CC[C@@H]1C[C@@H]2OCc1ccccc1)N1CC2(C1)CN(c1c(C(F)(F)F)cnc3sc(CC(F)(F)F)cc13)C2 [Example 13, [(1S,3S,4R,6S)-6-(benzyloxy)-2-azabicyclo[2.2.2]octan-3-yl]{6-[2-(2,2,2-trifluoroethyl)-5-(trifluoromethyl)thieno[2,3-b]pyridin-4-yl]-2,6-diazaspiro[3.3]heptan-2-yl}methanone] | 810 nM | 620 nM | 134 nM |  | 63% | 57.3% |  |  | 
5 | O=C([C@H]1N[C@@H]2CC[C@H]1C2)N1CC2(C1)CN(c1c(C(F)F)cnc3sc(CC(F)(F)F)cc13)C2 [Example 27, [(1R,3S,4S)-2-azabicyclo[2.2.1]heptan-3-yl]{6-[5-(difluoromethyl)-2-(2,2,2-trifluoroethyl)thieno[2,3-b]pyridin-4-yl]-2,6-diazaspiro[3.3]heptan-2-yl}methanone] | 940 nM | 560 nM | 26 nM | potent | 53.5% | 48.9% | good | showed the mRNA transcription inhibition activity | 
6 | O=C1C[C@@H]2CC[C@H]1[C@@H](C(=O)N1CC3(C1)CN(c1c(C(F)(F)F)cnc4sc(CC(F)(F)F)cc14)C3)N2 [Example 8, (1S,3S,4S)-3-{6-[2-(2,2,2-trifluoroethyl)-5-(trifluoromethyl)thieno[2,3-b]pyridin-4-yl]-2,6-diazaspiro[3.3]heptane-2-carbonyl}-2-azabicyclo[2.2.2]octan-5-one] | 1100 nM | 330 nM | 635 nM |  | 79.3% | 82.9% |  |  | 

Continued by falling IC50 (MOLM-13 cells), values first:

Row | IC50 (MOLM-13 cells) | IC50 (RS4; 11 cells) | IC50 [2] | Menin-MLL binding inhibition activity (in words) [2] | Structure (SMILES) | mrna remaining at 1 µM [1] | mrna remaining at 1 µM [3] | cell proliferation inhibition activity (in words, good) (RS4; 11 cells) | mRNA transcription inhibition activity (in words) [3] | cell proliferation inhibitory activity (in words, potent) (RS4; 11 cells)
7 | 2200 nM | 690 nM | 90.2 nM |  | N#Cc1cnc2sc(CC(F)(F)F)cc2c1N1CC2(CN(C(=O)[C@H]3N[C@H]4CC[C@@H]3C(=O)C4)C2)C1 [Example 25, 4-{6-[(1S,3S,4S)-5-oxo-2-azabicyclo[2.2.2]octane-3-carbonyl]-2,6-diazaspiro[3.3]heptan-2-yl}-2-(2,2,2-trifluoroethyl)thieno[2,3-b]pyridine-5-carbonitrile] |  |  |  |  | 
8 | 730 nM | 630 nM | 53.9 nM |  | C=CCO[C@H]1C[C@H]2CC[C@@H]1N[C@@H]2C(=O)N1CC2(C1)CN(c1c(C(F)(F)F)cnc3sc(CC(F)(F)F)cc13)C2 [Example 11, {(1S,3S,4R,6S)-6-[(prop-2-en-1-yl)oxy]-2-azabicyclo[2.2.2]octan-3-yl}{6-[2-(2,2,2-trifluoroethyl)-5-(trifluoromethyl)thieno[2,3-b]pyridin-4-yl]-2,6-diazaspiro[3.3]heptan-2-yl}methanone] | 64.5% | 60.7% |  |  | 
9 | 680 nM | 290 nM | 44.7 nM | potent | O=C([C@H]1NC2CCC1CC2)N1CC2(C1)CN(c1c(C(F)F)cnc3sc(CC(F)(F)F)cc13)C2 [Example 26, [(3S)-2-azabicyclo[2.2.2]octan-3-yl]{6-[5-(difluoromethyl)-2-(2,2,2-trifluoroethyl)thieno[2,3-b]pyridin-4-yl]-2,6-diazaspiro[3.3]heptan-2-yl}methanone] | 57.6% | 41.4% | good | showed the mRNA transcription inhibition activity | 
10 | 240 nM | 270 nM | 8.4 nM | potent | N#Cc1cnc2sc(CC(F)(F)F)cc2c1N1CC2(CN(C(=O)[C@H]3N[C@@H]4CC[C@H]3C4)C2)C1 [Example 21, 4-{6-[(1R,3S,4S)-2-azabicyclo[2.2.1]heptane-3-carbonyl]-2,6-diazaspiro[3.3]heptan-2-yl}-2-(2,2,2-trifluoroethyl)thieno[2,3-b]pyridine-5-carbonitrile] | 52.1% | 40.9% | good | showed the mRNA transcription inhibition activity | potent
11 | 220 nM | 270 nM | 11.4 nM | potent | N#Cc1cnc2sc(CC(F)(F)F)cc2c1N1CC2(CN(C(=O)[C@H]3NC4CCC3CC4)C2)C1 [Example 20, 4-{6-[(3S)-2-azabicyclo[2.2.2]octane-3-carbonyl]-2,6-diazaspiro[3.3]heptan-2-yl}-2-(2,2,2-trifluoroethyl)thieno[2,3-b]pyridine-5-carbonitrile] | 59.3% | 41.8% | good | showed the mRNA transcription inhibition activity | potent
